Experiment [1] concerns the target Cyclin-dependent kinase 17 (Homo sapiens, UniProt Q00537).
The target of experiment [2] is Ephrin type-A receptor 2 (Homo sapiens, UniProt P29317).
The target of experiment [3] is Mitogen-activated protein kinase kinase kinase 1 (Homo sapiens, UniProt Q13233).
Experiment [4] deals with T1, Mitogen-activated protein kinase kinase kinase 3 (Homo sapiens, UniProt Q99759).
T1 sequence (Q99759 whole entry): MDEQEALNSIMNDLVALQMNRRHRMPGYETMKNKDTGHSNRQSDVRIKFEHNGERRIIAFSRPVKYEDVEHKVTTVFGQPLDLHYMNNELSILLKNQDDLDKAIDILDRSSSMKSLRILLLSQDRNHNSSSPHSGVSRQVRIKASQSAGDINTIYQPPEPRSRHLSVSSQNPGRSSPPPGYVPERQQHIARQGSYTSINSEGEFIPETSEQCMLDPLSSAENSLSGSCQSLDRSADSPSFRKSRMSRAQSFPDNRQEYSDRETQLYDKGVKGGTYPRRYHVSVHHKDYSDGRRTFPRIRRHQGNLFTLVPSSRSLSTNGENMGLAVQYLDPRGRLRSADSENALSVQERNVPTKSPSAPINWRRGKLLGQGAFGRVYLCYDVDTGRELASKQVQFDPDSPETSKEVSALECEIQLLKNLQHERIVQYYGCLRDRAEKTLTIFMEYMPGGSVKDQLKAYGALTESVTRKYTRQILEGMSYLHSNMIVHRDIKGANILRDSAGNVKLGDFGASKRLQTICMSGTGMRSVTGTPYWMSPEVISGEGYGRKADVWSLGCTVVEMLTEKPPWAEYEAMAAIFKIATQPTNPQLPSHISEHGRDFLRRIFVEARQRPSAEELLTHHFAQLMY

The target of experiment [5] is High affinity nerve growth factor receptor (Homo sapiens, UniProt P04629).
The target in experiment [6] is Rho-associated protein kinase 1 (Homo sapiens, UniProt Q13464).
In experiment [7] the target is T2, Serine/threonine-protein kinase 4 (Homo sapiens, UniProt Q13043).
T2 sequence (Q13043 whole entry): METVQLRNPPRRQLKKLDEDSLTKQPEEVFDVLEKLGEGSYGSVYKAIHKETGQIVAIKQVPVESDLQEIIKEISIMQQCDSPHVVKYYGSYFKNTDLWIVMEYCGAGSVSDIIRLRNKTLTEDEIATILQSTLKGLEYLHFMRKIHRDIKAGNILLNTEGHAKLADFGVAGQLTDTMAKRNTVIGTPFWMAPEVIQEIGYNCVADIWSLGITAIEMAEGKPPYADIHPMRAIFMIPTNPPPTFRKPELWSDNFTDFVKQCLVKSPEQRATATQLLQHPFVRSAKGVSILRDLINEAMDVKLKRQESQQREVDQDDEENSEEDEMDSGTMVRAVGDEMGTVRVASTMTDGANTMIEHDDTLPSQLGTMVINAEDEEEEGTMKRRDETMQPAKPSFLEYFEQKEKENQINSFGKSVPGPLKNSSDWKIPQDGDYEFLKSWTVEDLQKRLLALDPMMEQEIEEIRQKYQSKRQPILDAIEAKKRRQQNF

The target of experiment [8] is T3, Receptor-type tyrosine-protein kinase FLT3 (Homo sapiens, UniProt P36888).
T3 sequence (P36888 whole entry): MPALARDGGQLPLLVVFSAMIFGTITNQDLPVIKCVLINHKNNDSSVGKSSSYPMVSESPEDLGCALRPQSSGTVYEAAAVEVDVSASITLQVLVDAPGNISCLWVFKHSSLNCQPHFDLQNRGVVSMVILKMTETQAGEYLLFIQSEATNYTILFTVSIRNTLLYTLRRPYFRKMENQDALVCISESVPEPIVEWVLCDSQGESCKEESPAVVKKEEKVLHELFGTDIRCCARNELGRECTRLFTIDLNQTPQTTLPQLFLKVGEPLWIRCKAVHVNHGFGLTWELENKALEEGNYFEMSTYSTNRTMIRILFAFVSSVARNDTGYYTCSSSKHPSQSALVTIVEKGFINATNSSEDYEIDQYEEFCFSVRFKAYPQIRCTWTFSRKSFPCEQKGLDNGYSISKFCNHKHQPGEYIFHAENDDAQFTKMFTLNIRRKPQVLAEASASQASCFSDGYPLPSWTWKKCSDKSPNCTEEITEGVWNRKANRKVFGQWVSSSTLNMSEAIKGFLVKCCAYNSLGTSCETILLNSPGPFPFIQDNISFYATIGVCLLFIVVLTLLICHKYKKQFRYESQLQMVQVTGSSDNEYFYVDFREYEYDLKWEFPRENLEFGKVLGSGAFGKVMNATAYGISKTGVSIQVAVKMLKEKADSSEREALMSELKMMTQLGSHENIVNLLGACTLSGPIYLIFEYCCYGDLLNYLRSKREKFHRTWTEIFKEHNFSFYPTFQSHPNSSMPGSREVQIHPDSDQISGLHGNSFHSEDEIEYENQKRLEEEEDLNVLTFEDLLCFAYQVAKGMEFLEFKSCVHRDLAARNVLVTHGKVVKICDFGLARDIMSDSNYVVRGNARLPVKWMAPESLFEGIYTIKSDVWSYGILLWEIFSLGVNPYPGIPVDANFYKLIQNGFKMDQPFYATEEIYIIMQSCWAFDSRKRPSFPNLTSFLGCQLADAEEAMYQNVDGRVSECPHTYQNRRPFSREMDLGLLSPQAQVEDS

In experiment [9] the target is Hepatocyte growth factor receptor (Homo sapiens, UniProt P08581).
Experiment [10] deals with Protein kinase C theta type (Homo sapiens, UniProt Q04759).
Experiment [11] has as its target Dual specificity mitogen-activated protein kinase kinase 1 (Homo sapiens, UniProt Q02750).
Experiment [12] deals with Serine/threonine-protein kinase pim-2 (Homo sapiens, UniProt Q9P1W9).
For experiment [13], the target named is Uncharacterized aarF domain-containing protein kinase 5 (Homo sapiens, UniProt Q3MIX3).

Structures are written as SMILES. Active and inactive are the calls of the source. Cut-off read from the data, not from the text of the source, for most assays here: actives have a measured Kd and inactives only a lower limit. Some results are limits rather than exact numbers.
Note: in the data inactive means no Kd found up to 30 µM.

Chain of Cyclin-dependent kinase 17 (Q00537 whole entry): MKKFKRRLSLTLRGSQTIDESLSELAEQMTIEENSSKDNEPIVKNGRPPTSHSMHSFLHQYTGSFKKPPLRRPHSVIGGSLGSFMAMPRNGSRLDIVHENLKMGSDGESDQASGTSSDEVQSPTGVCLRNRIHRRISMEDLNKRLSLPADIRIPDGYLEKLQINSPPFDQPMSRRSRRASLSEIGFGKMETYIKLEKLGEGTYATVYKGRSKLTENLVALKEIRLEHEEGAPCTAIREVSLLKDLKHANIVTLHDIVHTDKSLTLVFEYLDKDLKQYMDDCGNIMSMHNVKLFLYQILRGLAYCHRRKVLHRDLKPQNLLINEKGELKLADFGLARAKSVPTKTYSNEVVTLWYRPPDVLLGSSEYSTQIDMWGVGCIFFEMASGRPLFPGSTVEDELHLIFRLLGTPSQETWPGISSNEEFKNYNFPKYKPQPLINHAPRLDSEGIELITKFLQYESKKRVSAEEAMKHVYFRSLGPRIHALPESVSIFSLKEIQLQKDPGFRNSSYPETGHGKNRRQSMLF
Chain of Serine/threonine-protein kinase pim-2 (Q9P1W9 whole entry, the tested form may be a part): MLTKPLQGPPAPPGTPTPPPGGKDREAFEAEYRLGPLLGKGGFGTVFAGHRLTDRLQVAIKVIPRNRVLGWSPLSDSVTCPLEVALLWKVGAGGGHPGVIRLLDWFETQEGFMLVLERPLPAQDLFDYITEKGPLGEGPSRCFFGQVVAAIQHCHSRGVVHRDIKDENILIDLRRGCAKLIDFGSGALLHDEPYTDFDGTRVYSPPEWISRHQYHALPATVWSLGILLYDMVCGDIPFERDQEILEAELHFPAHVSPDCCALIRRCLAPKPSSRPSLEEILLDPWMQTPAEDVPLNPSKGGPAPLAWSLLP
Chain of Rho-associated protein kinase 1 (Q13464 whole entry): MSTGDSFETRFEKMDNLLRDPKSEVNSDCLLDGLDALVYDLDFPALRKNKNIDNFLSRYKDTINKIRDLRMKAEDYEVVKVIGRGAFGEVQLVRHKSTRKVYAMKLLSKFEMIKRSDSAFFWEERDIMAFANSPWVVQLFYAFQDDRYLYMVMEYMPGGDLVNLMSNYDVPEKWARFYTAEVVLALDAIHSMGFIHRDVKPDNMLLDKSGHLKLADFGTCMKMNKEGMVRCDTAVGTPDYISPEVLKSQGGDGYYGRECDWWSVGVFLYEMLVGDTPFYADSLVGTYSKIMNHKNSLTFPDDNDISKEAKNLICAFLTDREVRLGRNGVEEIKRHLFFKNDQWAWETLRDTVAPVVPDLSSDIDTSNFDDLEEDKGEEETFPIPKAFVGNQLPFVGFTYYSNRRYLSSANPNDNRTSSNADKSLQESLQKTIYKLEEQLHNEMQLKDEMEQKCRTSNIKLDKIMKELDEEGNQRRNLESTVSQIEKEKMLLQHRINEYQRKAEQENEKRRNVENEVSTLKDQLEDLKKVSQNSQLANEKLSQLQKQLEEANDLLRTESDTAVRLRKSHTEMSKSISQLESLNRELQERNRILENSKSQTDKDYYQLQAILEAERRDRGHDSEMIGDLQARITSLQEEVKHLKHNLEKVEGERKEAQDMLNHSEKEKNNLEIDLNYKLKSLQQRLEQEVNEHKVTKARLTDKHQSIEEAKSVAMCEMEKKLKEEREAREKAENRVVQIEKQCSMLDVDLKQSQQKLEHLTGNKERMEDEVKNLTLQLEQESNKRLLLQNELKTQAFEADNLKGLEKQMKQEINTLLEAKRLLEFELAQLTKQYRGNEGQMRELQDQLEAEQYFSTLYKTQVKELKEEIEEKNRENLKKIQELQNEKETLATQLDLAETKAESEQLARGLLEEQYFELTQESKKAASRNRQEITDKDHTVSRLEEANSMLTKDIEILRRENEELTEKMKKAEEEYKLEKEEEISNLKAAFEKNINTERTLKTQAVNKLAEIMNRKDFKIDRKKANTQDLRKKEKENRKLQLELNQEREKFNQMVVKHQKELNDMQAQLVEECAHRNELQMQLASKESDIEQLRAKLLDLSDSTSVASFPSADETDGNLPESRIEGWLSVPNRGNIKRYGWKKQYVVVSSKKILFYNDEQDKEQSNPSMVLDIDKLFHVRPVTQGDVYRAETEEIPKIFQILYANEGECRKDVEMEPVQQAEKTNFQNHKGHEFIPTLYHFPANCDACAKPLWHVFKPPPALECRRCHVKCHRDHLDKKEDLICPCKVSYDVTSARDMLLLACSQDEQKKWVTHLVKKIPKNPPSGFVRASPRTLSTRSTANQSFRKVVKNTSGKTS
Chain of High affinity nerve growth factor receptor (P04629 whole entry): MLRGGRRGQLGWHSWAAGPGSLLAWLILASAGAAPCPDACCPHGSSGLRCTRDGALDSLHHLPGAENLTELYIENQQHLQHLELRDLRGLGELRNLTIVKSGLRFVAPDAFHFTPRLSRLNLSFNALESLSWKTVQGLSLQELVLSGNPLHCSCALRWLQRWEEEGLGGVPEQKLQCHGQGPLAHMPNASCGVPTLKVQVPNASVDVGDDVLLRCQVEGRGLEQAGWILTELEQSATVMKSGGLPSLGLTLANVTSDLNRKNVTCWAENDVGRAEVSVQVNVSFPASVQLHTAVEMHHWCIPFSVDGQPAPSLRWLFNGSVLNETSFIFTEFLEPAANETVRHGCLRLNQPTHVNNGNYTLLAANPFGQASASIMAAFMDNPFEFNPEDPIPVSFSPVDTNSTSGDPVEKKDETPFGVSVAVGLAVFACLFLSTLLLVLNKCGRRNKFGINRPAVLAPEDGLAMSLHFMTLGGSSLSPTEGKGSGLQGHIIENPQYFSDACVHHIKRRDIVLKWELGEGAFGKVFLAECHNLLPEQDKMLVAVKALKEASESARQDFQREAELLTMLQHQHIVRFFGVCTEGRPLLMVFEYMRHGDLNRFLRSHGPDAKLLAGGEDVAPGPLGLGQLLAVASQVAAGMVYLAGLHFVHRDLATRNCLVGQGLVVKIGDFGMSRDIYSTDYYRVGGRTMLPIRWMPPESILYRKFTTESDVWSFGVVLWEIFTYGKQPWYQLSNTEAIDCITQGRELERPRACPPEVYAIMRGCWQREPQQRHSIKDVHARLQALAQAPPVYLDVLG
Chain of Dual specificity mitogen-activated protein kinase kinase 1 (Q02750 whole entry): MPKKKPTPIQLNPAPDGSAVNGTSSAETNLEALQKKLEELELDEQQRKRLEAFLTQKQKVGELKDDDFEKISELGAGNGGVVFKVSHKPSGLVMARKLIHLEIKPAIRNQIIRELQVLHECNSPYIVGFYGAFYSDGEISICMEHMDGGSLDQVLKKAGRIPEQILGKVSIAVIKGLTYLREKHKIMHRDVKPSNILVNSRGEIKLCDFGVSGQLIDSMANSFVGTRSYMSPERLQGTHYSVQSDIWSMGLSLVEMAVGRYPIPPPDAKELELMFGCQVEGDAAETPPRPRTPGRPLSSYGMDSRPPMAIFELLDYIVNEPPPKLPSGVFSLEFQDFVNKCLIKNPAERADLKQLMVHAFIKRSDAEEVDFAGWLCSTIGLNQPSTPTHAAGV
Chain of Mitogen-activated protein kinase kinase kinase 1 (Q13233 whole entry): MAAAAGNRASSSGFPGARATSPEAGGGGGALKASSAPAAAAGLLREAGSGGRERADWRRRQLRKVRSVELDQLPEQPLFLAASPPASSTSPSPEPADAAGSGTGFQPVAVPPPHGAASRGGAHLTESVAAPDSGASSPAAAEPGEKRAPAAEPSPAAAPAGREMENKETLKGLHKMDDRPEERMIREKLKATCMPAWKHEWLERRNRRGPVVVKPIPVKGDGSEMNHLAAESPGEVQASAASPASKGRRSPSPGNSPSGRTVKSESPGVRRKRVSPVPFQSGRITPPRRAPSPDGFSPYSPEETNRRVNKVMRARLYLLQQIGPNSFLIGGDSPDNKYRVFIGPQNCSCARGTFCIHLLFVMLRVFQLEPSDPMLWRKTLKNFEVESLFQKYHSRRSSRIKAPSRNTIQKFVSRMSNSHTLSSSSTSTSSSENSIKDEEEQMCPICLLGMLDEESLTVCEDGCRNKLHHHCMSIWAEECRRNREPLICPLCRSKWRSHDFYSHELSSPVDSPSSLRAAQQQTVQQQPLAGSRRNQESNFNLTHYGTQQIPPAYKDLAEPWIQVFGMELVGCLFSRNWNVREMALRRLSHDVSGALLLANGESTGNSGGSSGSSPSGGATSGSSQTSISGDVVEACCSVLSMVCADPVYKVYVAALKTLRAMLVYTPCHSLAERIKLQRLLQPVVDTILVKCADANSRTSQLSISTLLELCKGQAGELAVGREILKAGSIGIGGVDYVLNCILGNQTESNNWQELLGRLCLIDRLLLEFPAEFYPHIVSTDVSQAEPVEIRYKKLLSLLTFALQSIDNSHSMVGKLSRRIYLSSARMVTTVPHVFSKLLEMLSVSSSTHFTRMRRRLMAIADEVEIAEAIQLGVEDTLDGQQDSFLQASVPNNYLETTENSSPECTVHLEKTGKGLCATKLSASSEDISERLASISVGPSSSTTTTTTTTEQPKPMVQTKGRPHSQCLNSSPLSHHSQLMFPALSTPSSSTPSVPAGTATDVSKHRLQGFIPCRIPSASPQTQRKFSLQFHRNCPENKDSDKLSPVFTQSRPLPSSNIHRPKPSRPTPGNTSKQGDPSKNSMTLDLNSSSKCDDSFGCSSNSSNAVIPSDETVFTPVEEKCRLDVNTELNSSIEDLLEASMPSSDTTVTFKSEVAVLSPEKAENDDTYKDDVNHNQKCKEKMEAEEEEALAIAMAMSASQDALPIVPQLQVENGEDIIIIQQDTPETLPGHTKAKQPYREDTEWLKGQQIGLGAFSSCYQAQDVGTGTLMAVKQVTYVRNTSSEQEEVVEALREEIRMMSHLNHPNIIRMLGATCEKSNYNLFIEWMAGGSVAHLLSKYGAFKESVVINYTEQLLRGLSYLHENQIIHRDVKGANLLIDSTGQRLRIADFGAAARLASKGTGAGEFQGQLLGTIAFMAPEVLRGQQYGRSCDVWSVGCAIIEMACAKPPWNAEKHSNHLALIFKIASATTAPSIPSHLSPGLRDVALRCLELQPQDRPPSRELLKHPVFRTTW

In general, Kd refers to a measure of binding affinity in units of concentration. With `CCc1nc(C(N)=O)c(Nc2ccc(N3CCC(N4CCN(C)CC4)CC3)c(OC)c2)nc1NC1CCOCC1` [GILTERITINIB], the Kd in [1], in experiment [2], in experiment [3], in experiment [4], in experiment [5] and in experiment [6] was > 30 µM (inactive) in each case. In addition, the Kd in experiment [7] was > 30 µM (inactive).

As for `COc1cc(F)c(F)c(Nc2ccc(I)cc2F)c1NS(=O)(=O)C1(C[C@H](O)CO)CC1` [REFAMETINIB], the Kd in [1], in experiment [2], in experiment [8], in [3], in experiment [4] and in [9] was > 30 µM (inactive) in each case. Moreover, the Kd in [5], in experiment [10], in experiment [6] and in experiment [7] was > 30 µM (inactive) in each case.

`CCOc1ccn(-c2ccc(F)cc2)c(=O)c1C(=O)Nc1ccc(Oc2ccnc(N)c2Cl)c(F)c1` [BMS-777607]: the Kd in experiment [2] is > 30 µM (inactive); in experiment [11], > 30 µM (inactive); in experiment [3], > 30 µM (inactive); in [4] it was > 30 µM (inactive); in [9], 0.011 µM (active); in [10] it was > 30 µM (inactive). The Kd in experiment [6] was > 30 µM (inactive).

In the case of `FC(F)(F)c1ccc(CNc2ccc(Cc3c[nH]c4ncc(Cl)cc34)cn2)cn1` [PEXIDARTINIB], the Kd in experiment [1], in experiment [2], in experiment [11], in experiment [3], in experiment [4] and in [9] was > 30 µM (inactive) throughout. In addition, the Kd was > 30 µM (inactive) in experiment [5]; > 30 µM (inactive) in [12]; 0.006 µM in [10]; > 30 µM (inactive) in experiment [6]; > 30 µM (inactive) in experiment [7].

Turning to `COc1cc2ncnc3c2cc1OCCCCCN(C)Cc1ccc(Br)cc1N3` [JNJ-26483327], the Kd in experiment [13], in [1], in [2], in experiment [8], in [11] and in experiment [3] was > 30 µM (inactive) in each case. Further, the Kd in experiment [4], in experiment [9], in experiment [5], in [10], in [6] and in experiment [7] was > 30 µM (inactive) throughout.

With `NC(=O)c1ccc(N(C(N)=O)c2c(F)cccc2F)nc1-c1ccc(F)cc1F` [VX-702], the Kd in experiment [1], in experiment [2], in experiment [8], in [11], in [3] and in experiment [4] was > 30 µM (inactive) in each case. Further, the Kd in experiment [9], in experiment [5], in experiment [10], in [6] and in [7] was > 30 µM (inactive) throughout.

As to `N#CCNC(=O)c1ccc(-c2ccnc(Nc3ccc(N4CCOCC4)cc3)n2)cc1` [MOMELOTINIB], the Kd in [1] is 1.38 µM; in experiment [2] it was > 30 µM (inactive); in experiment [3], > 30 µM (inactive); in [4] it was > 30 µM (inactive); in experiment [5] it was > 30 µM (inactive); in [12] it was > 30 µM (inactive). In addition, the Kd in [6] was 1.36 µM (active); in experiment [7], > 30 µM (inactive).

For `O=c1[nH]c([C@@H]2CCCN2)nc2c1oc1ccc(Cl)cc12`, the Kd in experiment [2], in [8], in [11], in [3], in experiment [4] and in [9] was > 30 µM (inactive) each time. Moreover, the Kd in experiment [12], in experiment [10] and in [7] was > 30 µM (inactive) in each case.

Turning to `COc1cccc(Nc2ncnn3ccc(CN4CC[C@@H](N)[C@H](O)C4)c23)c1` [BMS-690514], the Kd in experiment [2] was > 30 µM (inactive); in experiment [11] it was > 30 µM (inactive); in experiment [3], > 30 µM (inactive); in experiment [4] it was 0.546 µM (active); in [10], > 30 µM (inactive); in [7], > 30 µM (inactive).

On to `CC(C)(O)CC(=O)NCCn1ccc2ncnc(Nc3ccc(Oc4cccc(C(F)(F)F)c4)c(Cl)c3)c21` [TAK-285], for which the Kd in experiment [1], in experiment [2], in [8], in experiment [11], in experiment [3] and in experiment [4] was > 30 µM (inactive) each time. Besides, the Kd in experiment [5], in experiment [10], in experiment [6] and in [7] was > 30 µM (inactive) in each case.

Turning to `C=CCN(/C=C1/C(=O)O[C@H](COC)[C@@]2(C)C1=C(O)C(=O)C1=C2[C@H](OC(C)=O)C[C@]2(C)C(=O)CC[C@@H]12)CC=C` [SONOLISIB], the Kd in experiment [1], in [2], in [8], in experiment [11], in experiment [3] and in experiment [4] was > 30 µM (inactive) each time. The Kd in [9], in experiment [6] and in experiment [7] was > 30 µM (inactive) in each case.

For `CC[C@@](C)(Nc1ccnc(-c2c[nH]c3ncccc23)n1)C(=O)NCC(F)(F)F` [DECERNOTINIB], the Kd is 0.139 µM (active) in [1]; > 30 µM (inactive) in [2]; > 30 µM (inactive) in [8]; > 30 µM (inactive) in [11]; > 30 µM (inactive) in experiment [3]; > 30 µM (inactive) in experiment [4]. Further, the Kd in experiment [9] is 0.094 µM; in experiment [5], > 30 µM (inactive); in experiment [6], 13.5 µM (active); in experiment [7], > 30 µM (inactive).

(Values after ChEMBL document CHEMBL3991601, “The target landscape of clinical kinase drugs” (Science, 2017).)
